According to ChEMBL document CHEMBL3286094, “Synthesis and biological evaluation of novel bisbenzimidazoles as Escherichia coli topoisomerase IA inhibitors and potential antibacterial agents” (J Med Chem, 2014):
In brackets after ≈: the same amount, converted by molar mass. Activity calls are given as the source filed them. The rule behind the calls is not given here.

Tests used:
Escherichia coli [1] = experiment: Antibacterial activity against tetracycline/trimethoprim-resistant Escherichia coli IST isolated from water source assessed as growth inhibition after 18 to 24 hrs by broth microdilution method
Escherichia coli [2] = experiment: Bactericidal activity against chloramphenicol/ampicillin/trimethoprim/ciprofloxacin/nalidixic acid-resistant Escherichia coli 59 by agar plating method; type: functional
Escherichia coli [3] = experiment: Antibacterial activity against ampicillin/ciprofloxacin/gentamicin/tetracycline-resistant Escherichia coli 555 assessed as growth inhibition after 18 to 24 hrs by broth microdilution method; type: functional
Escherichia coli [4] = experiment: Antibacterial activity against Escherichia coli DH5[alpha] assessed as growth inhibition after 18 to 24 hrs by broth microdilution method; type: functional
Escherichia coli [5] = experiment: Bactericidal activity against ampicillin/tetracycline/piperacillin-resistant Escherichia coli WB31 isolated from water source by agar plating method
Escherichia coli [6] = experiment: Bactericidal activity against ampicillin/kanamycin/trimethoprim/tetracyclin/ciprofloxacin/nalidixic acid-resistant Escherichia coli 81 by agar plating method; type: functional
Escherichia coli [7] = experiment: Bactericidal activity against chloroamphenicol/ampicillin/kanamycin/trimethoprim/ciprofloxacin/nalidixic acid-resistant Escherichia coli 85 by agar plating method; type: functional
Escherichia coli [8] = experiment: Antibacterial activity against ampicillin/chloramphenicol/ciprofloxacin/gentamicin/tetracycline-resistant Escherichia coli 401 assessed as growth inhibition after 18 to 24 hrs by broth microdilution method; type: functional
Escherichia coli [9] = experiment: Antibacterial activity against ampicillin/kanamycin/trimethoprim/tetracyclin/ciprofloxacin/nalidixic acid-resistant Escherichia coli 81 assessed as growth inhibition after 18 to 24 hrs by broth microdilution method; type: functional
Escherichia coli [10] = experiment: Antibacterial activity against ampicillin/trimethoprim/cefazolinl/piperacillin/cefuroxime/cefoxitine/cefepime/cefotaxime-resistant Escherichia coli KP21 isolated from water source assessed as growth inhibition after 18 to 24 hrs by broth microdilution method
Escherichia coli [11] = experiment: Antibacterial activity against ampicillin/tetracycline-resistant Escherichia coli IP18 isolated from water source assessed as growth inhibition after 18 to 24 hrs by broth microdilution method
Escherichia coli [12] = experiment: Antibacterial activity against cefazolinl/ampicillin/piperacillin/cefuroxime/cefepime/cefotaxime/tetracycline/trimethoprim-resistant Escherichia coli KK16 isolated from water source assessed as growth inhibition after 18 to 24 hrs by broth microdilution method
Escherichia coli [13] = experiment: Antibacterial activity against ampicillin/trimethoprim/nalidixic acid-resistant Escherichia coli 118 assessed as growth inhibition after 18 to 24 hrs by broth microdilution method; type: functional
Escherichia coli [14] = experiment: Bactericidal activity against ampicillin/tetracycline-resistant Escherichia coli IP18 isolated from water source by agar plating method
Escherichia coli [15] = experiment: Antibacterial activity against chloramphenicol/ampicillin/kanamycin/trimethoprim/ciprofloxacin/nalidixic acid-resistant Escherichia coli 151 assessed as growth inhibition after 18 to 24 hrs by broth microdilution method; type: functional
Escherichia coli [16] = experiment: Bactericidal activity against ampicillin/trimethoprim/cefazolinl/piperacillin/cefuroxime/cefoxitine/cefepime/cefotaxime-resistant Escherichia coli KP21 isolated from water source by agar plating method
Escherichia coli [17] = experiment: Bactericidal activity against tetracycline/trimethoprim-resistant Escherichia coli IST isolated from water source by agar plating method
Escherichia coli [18] = experiment: Bactericidal activity against chloramphenicol/ampicillin/kanamycin/trimethoprim/ciprofloxacin/nalidixic acid-resistant Escherichia coli 132 by agar plating method; type: functional
Escherichia coli [19] = experiment: Bactericidal activity against Escherichia coli ATCC 25922 by agar plating method; type: functional
Escherichia coli [20] = experiment: Antibacterial activity against ampicillin/trimethoprim/piperacillin-resistant Escherichia coli MKNJ isolated from water source assessed as growth inhibition after 18 to 24 hrs by broth microdilution method
Escherichia coli [21] = experiment: Antibacterial activity against ampicillin/chloramphenicol/tetracycline/trimethoprim/ciprofloxacin-resistant Escherichia coli KK45 isolated from water source assessed as growth inhibition after 18 to 24 hrs by broth microdilution method
Escherichia coli [22] = experiment: Antibacterial activity against Escherichia coli ATCC 25922 assessed as growth inhibition after 18 to 24 hrs by broth microdilution method; type: functional
Escherichia coli [23] = experiment: Antibacterial activity against ciprofloxacin-resistant Escherichia coli 72 assessed as growth inhibition after 18 to 24 hrs by broth microdilution method; type: functional
Escherichia coli [24] = experiment: Bactericidal activity against ampicillin/tetracycline/gentamicin-resistant Escherichia coli 451 by agar plating method; type: functional
Escherichia coli [25] = experiment: Antibacterial activity against ampicillin/tetracycline/gentamicin-resistant Escherichia coli 451 assessed as growth inhibition after 18 to 24 hrs by broth microdilution method; type: functional
Escherichia coli [26] = experiment: Bactericidal activity against ampicillin/trimethoprim/piperacillin-resistant Escherichia coli MKNJ isolated from water source by agar plating method
Escherichia coli [27] = experiment: Bactericidal activity against ciprofloxacin-resistant Escherichia coli 72 by agar plating method; type: functional
Escherichia coli [28] = experiment: Inhibition of Escherichia coli DNA gyrase using relaxed pHOT1 plasmid DNA as substrate assessed as inhibition of DNA supercoiling up to 100 uM after 30 mins by agarose gel electrophoresis
Escherichia coli [29] = experiment: Bactericidal activity against cefazolinl/ampicillin/piperacillin/cefuroxime/cefepime/cefotaxime/tetracycline/trimethoprim-resistant Escherichia coli KK16 isolated from water source by agar plating method
Escherichia coli [30] = experiment: Antibacterial activity against chloroamphenicol/ampicillin/kanamycin/trimethoprim/ciprofloxacin/nalidixic acid-resistant Escherichia coli 85 assessed as growth inhibition after 18 to 24 hrs by broth microdilution method; type: functional
Escherichia coli [31] = experiment: Antibacterial activity against multidrug-resistant Escherichia coli IP9 isolated from water source assessed as growth inhibition after 18 to 24 hrs by broth microdilution method
Escherichia coli [32] = experiment: Antibacterial activity against chloramphenicol/ampicillin/kanamycin/trimethoprim/ciprofloxacin/nalidixic acid-resistant Escherichia coli 132 assessed as growth inhibition after 18 to 24 hrs by broth microdilution method; type: functional
Escherichia coli [33] = experiment: Antibacterial activity against gentamicin/kanamycin/tetracycline/nalidixic acid-resistant Escherichia coli 360 assessed as growth inhibition after 18 to 24 hrs by broth microdilution method; type: functional
Escherichia coli [34] = experiment: Antibacterial activity against cefazolinl/ampicillin/piperacillin/cefuroxime/cefepime/cefotaxime/tetracycline/ciprofloxacin-resistant Escherichia coli NG3 isolated from water source assessed as growth inhibition after 18 to 24 hrs by broth microdilution method
Escherichia coli [35] = experiment: Bactericidal activity against ampicillin/ciprofloxacin/gentamicin/tetracycline-resistant Escherichia coli 555 by agar plating method; type: functional

CCOc1ccc(-c2nc3ccc(-c4nc5ccc(N6CCN(CC)CC6)cc5[nH]4)cc3[nH]2)cc1
MIC50 (Escherichia coli [1]): 4 µg/mL (≈ 8.57 µM)
MIC90 (Escherichia coli [1]): 3.7 µg/mL (≈ 7.93 µM)
MBC (Escherichia coli [2]): 8 µg/mL (≈ 17.1 µM)
MIC50 (Escherichia coli [3]): 8 µg/mL (≈ 17.1 µM)
MIC90 (Escherichia coli [3]): 13.9 µg/mL (≈ 29.8 µM)
MIC50 (Escherichia coli [4]): 0.5 µg/mL (≈ 1.07 µM)
MIC90 (Escherichia coli [4]): 0.7 µg/mL (≈ 1.5 µM)
MBC (Escherichia coli [5]): 8 µg/mL (≈ 17.1 µM)
MBC (Escherichia coli [6]): 8 µg/mL (≈ 17.1 µM)
MBC (Escherichia coli [7]): 8 µg/mL (≈ 17.1 µM)
MIC50 (Escherichia coli [8]): 2 µg/mL (≈ 4.29 µM)
MIC90 (Escherichia coli [8]): 3.7 µg/mL (≈ 7.93 µM)
MIC50 (Escherichia coli [9]): 4 µg/mL (≈ 8.57 µM)
MIC90 (Escherichia coli [9]): 6.5 µg/mL (≈ 13.9 µM)
MIC50 (Escherichia coli [10]): 4 µg/mL (≈ 8.57 µM)
MIC90 (Escherichia coli [10]): 6.8 µg/mL (≈ 14.6 µM)
MIC50 (Escherichia coli [11]): 4 µg/mL (≈ 8.57 µM)
MIC90 (Escherichia coli [11]): 7.6 µg/mL (≈ 16.3 µM)
MIC50 (Escherichia coli [12]): 1 µg/mL (≈ 2.14 µM)
MIC90 (Escherichia coli [12]): 1.8 µg/mL (≈ 3.86 µM)
MIC50 (Escherichia coli [13]): 1 µg/mL (≈ 2.14 µM)
MIC90 (Escherichia coli [13]): 1.4 µg/mL (≈ 3 µM)
MBC (Escherichia coli [14]): 8 µg/mL (≈ 17.1 µM)
MIC50 (Escherichia coli [15]): 4 µg/mL (≈ 8.57 µM)
MIC90 (Escherichia coli [15]): 6.8 µg/mL (≈ 14.6 µM)
MBC (Escherichia coli [16]): 8 µg/mL (≈ 17.1 µM)
MBC (Escherichia coli [17]): 8 µg/mL (≈ 17.1 µM)
MBC (Escherichia coli [18]): 8 µg/mL (≈ 17.1 µM)
MBC (Escherichia coli [19]): 4 µg/mL (≈ 8.57 µM)
MIC50 (Escherichia coli [20]): 4 µg/mL (≈ 8.57 µM)
MIC90 (Escherichia coli [20]): 7.6 µg/mL (≈ 16.3 µM)
MIC50 (Escherichia coli [21]): 4 µg/mL (≈ 8.57 µM)
MIC90 (Escherichia coli [21]): 7.5 µg/mL (≈ 16.1 µM)
MIC50 (Escherichia coli [22]): 1.78 µg/mL (≈ 3.81 µM)
MIC90 (Escherichia coli [22]): 3.1 µg/mL (≈ 6.64 µM)
MIC50 (Escherichia coli [23]): 4 µg/mL (≈ 8.57 µM)
MIC90 (Escherichia coli [23]): 7.2 µg/mL (≈ 15.4 µM)
MBC (Escherichia coli [24]): 4 µg/mL (≈ 8.57 µM)
MIC50 (Escherichia coli [25]): 2 µg/mL (≈ 4.29 µM)
MIC90 (Escherichia coli [25]): 3.6 µg/mL (≈ 7.72 µM)
MBC (Escherichia coli [26]): 8 µg/mL (≈ 17.1 µM)
MBC (Escherichia coli [27]): 8 µg/mL (≈ 17.1 µM)
inhibition (Escherichia coli [28]): inactive
MBC (Escherichia coli [29]): 2 µg/mL (≈ 4.29 µM)
MIC50 (Escherichia coli [30]): 4 µg/mL (≈ 8.57 µM)
MIC90 (Escherichia coli [30]): 6.9 µg/mL (≈ 14.8 µM)
MIC50 (Escherichia coli [31]): 4 µg/mL (≈ 8.57 µM)
MIC90 (Escherichia coli [31]): 7.2 µg/mL (≈ 15.4 µM)
MIC50 (Escherichia coli [32]): 4 µg/mL (≈ 8.57 µM)
MIC90 (Escherichia coli [32]): 7.2 µg/mL (≈ 15.4 µM)
MIC50 (Escherichia coli [33]): 3 µg/mL (≈ 6.43 µM)
MIC90 (Escherichia coli [33]): 58.1 µg/mL (≈ 125 µM)
MIC50 (Escherichia coli [34]): 4 µg/mL (≈ 8.57 µM)
MIC90 (Escherichia coli [34]): 7.7 µg/mL (≈ 16.5 µM)
MBC (Escherichia coli [35]): 16 µg/mL (≈ 34.3 µM)

CCCN1CCN(c2ccc3nc(-c4ccc5nc(-c6ccc(OCC)cc6)[nH]c5c4)[nH]c3c2)CC1
MIC50 (Escherichia coli [1]): 0.5 µg/mL (≈ 1.04 µM)
MIC90 (Escherichia coli [1]): 1.7 µg/mL (≈ 3.54 µM)
MBC (Escherichia coli [2]): 4 µg/mL (≈ 8.32 µM)
MIC50 (Escherichia coli [3]): 4 µg/mL (≈ 8.32 µM)
MIC90 (Escherichia coli [3]): 6.8 µg/mL (≈ 14.1 µM)
MIC50 (Escherichia coli [4]): 0.2 µg/mL (≈ 0.416 µM)
MIC90 (Escherichia coli [4]): 0.8 µg/mL (≈ 1.66 µM)
MBC (Escherichia coli [5]): 2 µg/mL (≈ 4.16 µM)
MBC (Escherichia coli [6]): 2 µg/mL (≈ 4.16 µM)
MBC (Escherichia coli [7]): 2 µg/mL (≈ 4.16 µM)
MIC50 (Escherichia coli [8]): 1 µg/mL (≈ 2.08 µM)
MIC90 (Escherichia coli [8]): 1.7 µg/mL (≈ 3.54 µM)
MIC50 (Escherichia coli [9]): 1 µg/mL (≈ 2.08 µM)
MIC90 (Escherichia coli [9]): 1.6 µg/mL (≈ 3.33 µM)
MIC50 (Escherichia coli [10]): 0.5 µg/mL (≈ 1.04 µM)
MIC90 (Escherichia coli [10]): 3.8 µg/mL (≈ 7.91 µM)
MIC50 (Escherichia coli [11]): 1 µg/mL (≈ 2.08 µM)
MIC90 (Escherichia coli [11]): 3.4 µg/mL (≈ 7.07 µM)
MIC50 (Escherichia coli [12]): 0.5 µg/mL (≈ 1.04 µM)
MIC90 (Escherichia coli [12]): 1.8 µg/mL (≈ 3.75 µM)
MIC50 (Escherichia coli [13]): 1 µg/mL (≈ 2.08 µM)
MIC90 (Escherichia coli [13]): 1.7 µg/mL (≈ 3.54 µM)
MBC (Escherichia coli [14]): 4 µg/mL (≈ 8.32 µM)
MIC50 (Escherichia coli [15]): 1 µg/mL (≈ 2.08 µM)
MIC90 (Escherichia coli [15]): 1.7 µg/mL (≈ 3.54 µM)
MBC (Escherichia coli [16]): 4 µg/mL (≈ 8.32 µM)
MBC (Escherichia coli [17]): 2 µg/mL (≈ 4.16 µM)
MBC (Escherichia coli [18]): 4 µg/mL (≈ 8.32 µM)
MBC (Escherichia coli [19]): 0.4 µg/mL (≈ 0.832 µM)
MIC50 (Escherichia coli [20]): 1 µg/mL (≈ 2.08 µM)
MIC90 (Escherichia coli [20]): 3.5 µg/mL (≈ 7.28 µM)
MIC50 (Escherichia coli [21]): 0.5 µg/mL (≈ 1.04 µM)
MIC90 (Escherichia coli [21]): 1.7 µg/mL (≈ 3.54 µM)
MIC50 (Escherichia coli [22]): 0.2 µg/mL (≈ 0.416 µM)
MIC90 (Escherichia coli [22]): 3.3 µg/mL (≈ 6.87 µM)
MIC50 (Escherichia coli [23]): 2 µg/mL (≈ 4.16 µM)
MIC90 (Escherichia coli [23]): 3.1 µg/mL (≈ 6.45 µM)
MBC (Escherichia coli [24]): 2 µg/mL (≈ 4.16 µM)
MIC50 (Escherichia coli [25]): 1 µg/mL (≈ 2.08 µM)
MIC90 (Escherichia coli [25]): 1.7 µg/mL (≈ 3.54 µM)
MBC (Escherichia coli [26]): 4 µg/mL (≈ 8.32 µM)
MBC (Escherichia coli [27]): 4 µg/mL (≈ 8.32 µM)
inhibition (Escherichia coli [28]): inactive
MBC (Escherichia coli [29]): 2 µg/mL (≈ 4.16 µM)
MIC50 (Escherichia coli [30]): 1 µg/mL (≈ 2.08 µM)
MIC90 (Escherichia coli [30]): 1.7 µg/mL (≈ 3.54 µM)
MIC50 (Escherichia coli [31]): 1 µg/mL (≈ 2.08 µM)
MIC90 (Escherichia coli [31]): 3.1 µg/mL (≈ 6.45 µM)
MIC50 (Escherichia coli [32]): 2 µg/mL (≈ 4.16 µM)
MIC90 (Escherichia coli [32]): 3.5 µg/mL (≈ 7.28 µM)
MIC50 (Escherichia coli [33]): 1 µg/mL (≈ 2.08 µM)
MIC90 (Escherichia coli [33]): 1.6 µg/mL (≈ 3.33 µM)
MIC50 (Escherichia coli [34]): 0.5 µg/mL (≈ 1.04 µM)
MIC90 (Escherichia coli [34]): 1.7 µg/mL (≈ 3.54 µM)
MBC (Escherichia coli [35]): 8 µg/mL (≈ 16.6 µM)
